Measured values published in ChEMBL document CHEMBL3396966, “In vitro studies of antimicrobial activity of Gly-His-Lys conjugates as potential and promising candidates for therapeutics in skin and tissue infections” (2015).
Values after ≈ are worked out from the molar mass of the structure shown. Active and inactive are the calls of the source. The rule behind the calls is not given here. Non-standard residues stand in square brackets, D forms with d. Residues, ends and D or L forms follow the SMILES beside them. ξ: configuration not given here. *: point of attachment. Stearoyl = CCCCCCCCCCCCCCCCCC(=O)*; Palmitoyl = CCCCCCCCCCCCCCCC(=O)*; Lauroyl = CCCCCCCCCCCC(=O)*; ξHyp = O=C(O)C1CC(O)CN1

Key:
[1] = system: Staphylococcus aureus; assay: Bactericidal activity against Staphylococcus aureus after 16 to 20 hrs by broth micro-dilution method; assay type: functional, organism-based
[2] = system: Pseudomonas aeruginosa; assay: Bacteriostatic activity against Pseudomonas aeruginosa PCM 2562 (ATCC9027) after 16 to 20 hrs by broth micro-dilution method; assay type: functional, organism-based
[3] = system: Pseudomonas aeruginosa; assay: Bactericidal activity against Pseudomonas aeruginosa PCM 2562 (ATCC9027) after 4 hrs by broth micro-dilution method; assay type: functional, organism-based
[4] = system: Escherichia coli; assay: Bactericidal activity against Escherichia coli up to 18 hrs by time-kill assay; assay type: functional, organism-based
[5] = system: Staphylococcus aureus; assay: Bactericidal activity against Staphylococcus aureus at 8 times MIC after 18 hrs by time-kill assay; assay type: functional, organism-based
[6] = system: Pseudomonas aeruginosa; assay: Bactericidal activity against Pseudomonas aeruginosa PCM 2562 (ATCC9027) after 16 to 20 hrs by broth micro-dilution method; assay type: functional, organism-based
[7] = system: Pseudomonas aeruginosa; assay: Bactericidal activity against Pseudomonas aeruginosa PCM 2562 (ATCC9027) after 18 hrs by broth micro-dilution method; assay type: functional, organism-based
[8] = system: Staphylococcus aureus; assay: Bacteriostatic activity against Staphylococcus aureus after 16 to 20 hrs by broth micro-dilution method; assay type: functional, organism-based
[9] = system: Escherichia coli; assay: Antimicrobial activity against Escherichia coli after 16 to 20 hrs by broth micro-dilution method; assay type: functional, organism-based
[10] = system: Candida albicans; assay: Antifungal activity against Candida albicans after 16 to 20 hrs by broth micro-dilution method; assay type: functional, organism-based
[11] = system: Candida albicans; assay: Fungicidal activity against Candida albicans by time-kill assay; assay type: functional, organism-based
[12] = system: Pseudomonas aeruginosa; assay: Antimicrobial activity against Pseudomonas aeruginosa PCM 2562 (ATCC9027) after 16 to 20 hrs by broth micro-dilution method; assay type: functional
[13] = system: Candida albicans; assay: Fungicidal activity against Candida albicans at 4 to 8 times MIC after 4 hrs by time-kill assay; assay type: functional, organism-based
[14] = system: Candida albicans; assay: Fungicidal activity against Candida albicans at 250 ug/ml by time-kill assay; assay type: functional, organism-based
[15] = system: Candida albicans; assay: Fungicidal activity against Candida albicans at 8 times MIC after 4 hrs by time-kill assay; assay type: functional, organism-based
[16] = system: Staphylococcus aureus; assay: Bactericidal activity against Staphylococcus aureus up to 4 times MIC up to 18 hrs by time-kill assay; assay type: functional, organism-based
[17] = system: Staphylococcus aureus; assay: Bactericidal activity against Staphylococcus aureus at 0.5 to 1 times MIC up to 18 hrs by time-kill assay; assay type: functional, organism-based
[18] = system: Staphylococcus aureus; assay: Bactericidal activity against Staphylococcus aureus at 4 times MIC up to 18 hrs by time-kill assay
[19] = system: Staphylococcus aureus; assay: Bactericidal activity against Staphylococcus aureus at 8 times MIC up to 18 hrs by time-kill assay; assay type: functional, organism-based
[20] = system: Staphylococcus aureus; assay: Antimicrobial activity against Staphylococcus aureus after 16 to 20 hrs by broth micro-dilution method; assay type: functional, organism-based
[21] = system: Staphylococcus aureus; assay: Bactericidal activity against Staphylococcus aureus at 0.5 to 1 time MIC up to 18 hrs by time-kill assay; assay type: functional, organism-based
[22] = system: Staphylococcus aureus; assay: Bactericidal activity against Staphylococcus aureus at 1 to 4 times MIC up to 18 hrs by time-kill assay; assay type: functional, organism-based
[23] = system: Staphylococcus aureus; assay: Bactericidal activity against Staphylococcus aureus at 4 times MIC up to 18 hrs by time-kill assay; assay type: functional, organism-based
[24] = system: Candida albicans; assay: Fungicidal activity against Candida albicans at 2 times MIC by time-kill assay; assay type: functional, organism-based
[25] = system: Pseudomonas aeruginosa; assay: Bactericidal activity against Pseudomonas aeruginosa PCM 2562 (ATCC9027) at 4 times MIC up to 18 hrs by broth micro-dilution method; assay type: functional, organism-based
[26] = system: Escherichia coli; assay: Antimicrobial activity against Escherichia coli DSM11250 (PCM2560, NTCC 10538) after 16 to 20 hrs by broth micro-dilution method; assay type: functional
[27] = system: Staphylococcus aureus; assay: Antimicrobial activity against Staphylococcus aureus PCM 2602 (ATCC 6538) after 16 to 20 hrs by broth micro-dilution method; assay type: functional
[28] = system: Staphylococcus aureus; assay: Antimicrobial activity against Staphylococcus aureus PCM 2054 (ATCC 25923) after 16 to 20 hrs by broth micro-dilution method; assay type: functional
[29] = system: Escherichia coli; assay: Antimicrobial activity against Escherichia coli PCM 2561 (ATCC 8739, DSM 1576) after 16 to 20 hrs by broth micro-dilution method; assay type: functional
[30] = system: Staphylococcus aureus; assay: Bactericidal activity against Staphylococcus aureus at 6 times MIC up to 18 hrs by time-kill assay; assay type: functional, organism-based
[31] = system: Staphylococcus aureus; assay: Bactericidal activity against Staphylococcus aureus at 100 ug/ml up to 18 hrs by time-kill assay; assay type: functional, organism-based
[32] = system: Candida albicans; assay: Fungicidal activity against Candida albicans at MIC by time-kill assay; assay type: functional, organism-based
[33] = system: Candida albicans; assay: Fungicidal activity against Candida albicans at 2 to 4 times MIC by time-kill assay; assay type: functional, organism-based
[34] = Pseudomonas aeruginosa, PCM 2562 (ATCC9027)
[35] = Escherichia coli, DSM11250 (PCM2560, NTCC 10538)
[36] = Staphylococcus aureus, PCM 2602 (ATCC 6538)
[37] = Staphylococcus aureus, PCM 2054 (ATCC 25923)
[38] = Escherichia coli, PCM 2561 (ATCC 8739, DSM 1576)

CCCCCCCCCCCC(=O)NCC(=O)N1CC(O)CC1C(=O)N[C@@H](CCCCN)C(=O)O (some centres undefined)
Activity [1]: Active
Activity [2]: Active
Activity [3]: Active
Activity [4]: Active
Activity [5]: Active
Activity [6]: Active
Activity [7]: Active
Activity [8]: Active
Activity [9]: Active

NYSTATIN
MFC [10]: 7.8 µg/mL
MFC50 [10]: 1.9 µg/mL
MFC90 [10]: 7.8 µg/mL
MIC50 [10]: 1.9 µg/mL
MIC90 [10]: 3.9 µg/mL
Activity [11]: Active

CC(=O)NCC(=O)NCC(=O)N1CC(O)CC1C(=O)N[C@@H](CCCCN)C(=O)O (some centres undefined) (Ac-GG[ξHyp]K-OH)
Activity [4]: Active

CCCCCCCCCCCCCCCCCC(=O)NCC(=O)N1CC(O)CC1C(=O)N[C@H](CCCCN)C(=O)O (some centres undefined)
Activity [4]: Active

CN(C)[C@@H]1C(O)=C(C(N)=O)C(=O)[C@@]2(O)C(O)=C3C(=O)c4c(O)cccc4[C@@](C)(O)[C@H]3C[C@@H]12 [TETRACYCLINE]
MBC50 [12]: 31.3 µg/mL (≈ 70.4 µM)
MBC90 [12]: 62.5 µg/mL (≈ 141 µM)
MBC [12, 34]: 31.3 µg/mL (≈ 70.4 µM)
MIC [12, 34]: 3.9 µg/mL (≈ 8.78 µM)
MIC50 [12, 34]: 3.91 µg/mL (≈ 8.8 µM)
MIC90 [12, 34]: 7.81 µg/mL (≈ 17.6 µM)

CCCCCCCCCCCCCCCCCC(=O)NCC(=O)N1CC(O)CC1C(=O)N[C@@H](CCCCN)C(=O)O (some centres undefined)
Activity [13]: Active
Activity [14]: Active
Activity [4]: Active
Activity [15]: Active
Activity [16]: Active

CCCCCCCCCCCC(=O)NCC(=O)NCC(=O)N1CC(O)CC1C(=O)N[C@@H](CCCCN)C(=O)O (some centres undefined) (Lauroyl-GG[ξHyp]K-OH)
Activity [17]: Active
Activity [4]: Active

CCCCCCCCCCCC(=O)NCC(=O)N1CC(O)CC1C(=O)N[C@H](CCCCN)C(=O)O (some centres undefined)
Activity [18]: Active
Activity [4]: Active
Activity [16]: Active
Activity [9]: Active

CCCCCCCCCCCC(=O)NCC(=O)N1CC(O)CC1C(=O)N[C@@H](CCSC)C(=O)N[C@@H](CCCCN)C(=O)O (some centres undefined) (Lauroyl-G[ξHyp]MK-OH)
Activity [19]: Active

CSCC[C@H](NC(=O)C1CC(O)CN1C(=O)CN)C(=O)N[C@@H](CCCCN)C(=O)O (some centres undefined) (H-G[ξHyp]MK-OH)
Activity [4]: Active
Activity [20]: Active
Activity [9]: inactive

CCCCCCCCCCCCCCCC(=O)NCC(=O)N1CC(O)CC1C(=O)N[C@@H](CCCCN)C(=O)O (some centres undefined) (Palmitoyl-Gly-[ξHyp]-Lys-OH)
Activity [21]: Active
Activity [3]: Active
Activity [22]: Active
Activity [23]: Active
Activity [4]: Active
Activity [7]: Active
Activity [16]: Active

CCCCCCCCCCCCCCCC(=O)NCC(=O)N1CC(O)CC1C(=O)N[C@@H](CCCCN)C(N)=O (some centres undefined) (Palmitoyl-Gly-[ξHyp]-Lys-NH2)
Activity [24]: Active
Activity [25]: Active
MBC50 [12]: 1500 µg/mL (≈ 2710 µM)
MBC90 [12]: 2000 µg/mL (≈ 3610 µM)
MIC50 [12, 34]: 375 µg/mL (≈ 677 µM)
MIC90 [12, 34]: 500 µg/mL (≈ 903 µM)
MIC50 [26, 35]: 31.3 µg/mL (≈ 56.5 µM)
MIC90 [26, 35]: 62.5 µg/mL (≈ 113 µM)
MBC50 [27]: 93.7 µg/mL (≈ 169 µM)
MBC90 [27]: 125 µg/mL (≈ 226 µM)
MIC50 [27, 36]: 31.3 µg/mL (≈ 56.5 µM)
MIC90 [27, 36]: 31.3 µg/mL (≈ 56.5 µM)
MBC50 [28]: 93.7 µg/mL (≈ 169 µM)
MBC90 [28]: 125 µg/mL (≈ 226 µM)
MIC50 [28, 37]: 31.3 µg/mL (≈ 56.5 µM)
MIC90 [28, 37]: 62.5 µg/mL (≈ 113 µM)
Activity [23]: Active
MIC50 [29, 38]: 62.5 µg/mL (≈ 113 µM)
MIC90 [29, 38]: 125 µg/mL (≈ 226 µM)
Activity [30]: Active
Activity [31]: Active
Activity [32]: Active

CSCC[C@H](NC(=O)CN)C(=O)N[C@@H](CCCCN)C(=O)O (H-Gly-Met-Lys-OH)
Activity [4]: Active
Activity [9]: inactive

NCCCC[C@H](NC(=O)[C@H](Cc1cnc[nH]1)NC(=O)CN)C(=O)O (H-Gly-His-Lys-OH)
Activity [2]: Active
Activity [8]: Active
Activity [20]: Active
Activity [9]: Active

NC[C@H]1O[C@H](O[C@H]2[C@H](O)[C@@H](O[C@H]3O[C@H](CO)[C@@H](O)[C@H](N)[C@H]3O)[C@H](N)C[C@@H]2N)[C@H](O)[C@@H](O)[C@@H]1O [KANAMYCIN]
MBC50 [26]: 15.6 µg/mL (≈ 32.2 µM)
MBC90 [26]: 31.3 µg/mL (≈ 64.6 µM)
MBC [26, 35]: 7.8 µg/mL (≈ 16.1 µM)
MIC [26, 35]: 3.9 µg/mL (≈ 8.05 µM)
MIC50 [26, 35]: 7.8 µg/mL (≈ 16.1 µM)
MIC90 [26, 35]: 15.6 µg/mL (≈ 32.2 µM)
MBC50 [27]: 3.9 µg/mL (≈ 8.05 µM)
MBC90 [27]: 7.8 µg/mL (≈ 16.1 µM)
MBC [27, 36]: 11.7 µg/mL (≈ 24.1 µM)
MIC [27, 36]: 2.9 µg/mL (≈ 5.99 µM)
MIC50 [27, 36]: 2.9 µg/mL (≈ 5.99 µM)
MIC90 [27, 36]: 5.8 µg/mL (≈ 12 µM)
MBC50 [28]: 3.9 µg/mL (≈ 8.05 µM)
MBC90 [28]: 7.8 µg/mL (≈ 16.1 µM)
MBC [28, 37]: 11.7 µg/mL (≈ 24.1 µM)
MIC [28, 37]: 2.9 µg/mL (≈ 5.99 µM)
MIC50 [28, 37]: 2.9 µg/mL (≈ 5.99 µM)
MIC90 [28, 37]: 5.8 µg/mL (≈ 12 µM)
MBC50 [29]: 15.6 µg/mL (≈ 32.2 µM)
MBC90 [29]: 31.3 µg/mL (≈ 64.6 µM)
MBC [29, 38]: 7.8 µg/mL (≈ 16.1 µM)
MIC [29, 38]: 3.9 µg/mL (≈ 8.05 µM)
MIC50 [29, 38]: 7.8 µg/mL (≈ 16.1 µM)
MIC90 [29, 38]: 15.6 µg/mL (≈ 32.2 µM)

CC(=O)NCC(=O)N1CC(O)CC1C(=O)N[C@H](CCCCN)C(=O)O (some centres undefined)
Activity [9]: Active

NCCCC[C@H](NC(=O)C1CC(O)CN1C(=O)CN)C(=O)O (some centres undefined) (H-Gly-[ξHyp]-Lys-OH)
Activity [2]: Active
Activity [8]: Active
Activity [20]: Active
Activity [9]: Active

CCCCCCCCCCCCCCCCCC(=O)NCC(=O)NCC(=O)N1CC(O)CC1C(=O)N[C@@H](CCCCN)C(=O)O (some centres undefined) (Stearoyl-GG[ξHyp]K-OH)
Activity [24]: Active
Activity [33]: Active
